How the values were obtained:
Assay type in all cases: in vivo
[1] = system: barnyardgrass (Echinochloa crus-galli); assay: Test G Pre-Emergence Protocol; conditions: Echinochloa crus-galli, pre-emergence, 312 h, evaluated after 13 days; for pest or weed control at 15.625 g/ha: 15.625 g ai/ha, read-out: Barnyard grass damage rating (100=total damage to plant; 0=no damage to plant); for pest or weed control at 62.5 g/ha: 62.5 g ai/ha, 100=total damage to plant, 0=no damage to plant, read-out: plant damage rating, Barnyardgrass; for pest or weed control at 250 g/ha: 250 g ai/ha, read-out: Barnyardgrass damage rating (100=total damage to plant; 0=no damage to plant)
Procedure, shortened: (§1)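 Test compound in 0.5% Tween 20 acetone/water (50:50) was applied at three rates (15.625, 62.5, 250 g/ha) to soil sown one day earlier. After 13 days plants were scored for injury, where 0 means unaffected and 100 means completely damaged.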

[2] = system: corn (Zea mays); assay: Test G Pre-Emergence Protocol; conditions: Zea mays, pre-emergence, 312 h, evaluated after 13 days; for plant injury at 15.625 g/ha: 15.625 g ai/ha; for plant injury at 15.625 g/ha / plant injury at 250 g/ha: read-out: Corn damage rating (100=total damage to plant; 0=no damage to plant); for plant injury at 62.5 g/ha: 62.5 g ai/ha, 100=total damage to plant, 0=no damage to plant, read-out: plant damage rating, Corn; for plant injury at 250 g/ha: 250 g ai/ha
Procedure, shortened: as §1

[3] = system: giant foxtail (Setaria faberi); assay: Test G Pre-Emergence Protocol; conditions: Setaria faberi, pre-emergence, 312 h, evaluated after 13 days; for pest or weed control at 15.625 g/ha: 15.625 g ai/ha; for pest or weed control at 15.625 g/ha / pest or weed control at 250 g/ha: read-out: Foxtail, Giant damage rating (100=total damage to plant; 0=no damage to plant); for pest or weed control at 62.5 g/ha: 62.5 g ai/ha, 100=total damage to plant, 0=no damage to plant, read-out: plant damage rating, Foxtail, Giant; for pest or weed control at 250 g/ha: 250 g ai/ha
Procedure, shortened: as §1

[4] = system: ivy-leaved morning glory (Ipomoea hederacea); assay: Test G Pre-Emergence Protocol; conditions: Ipomoea, pre-emergence, 312 h, evaluated after 13 days; for pest or weed control at 15.625 g/ha: 15.625 g ai/ha, read-out: Morning-glory, Ivy-leaved damage rating (100=total damage to plant; 0=no damage to plant); for pest or weed control at 62.5 g/ha: 62.5 g ai/ha, 100=total damage to plant, 0=no damage to plant, read-out: plant damage rating, Morningglory, Ivy-leaved; for pest or weed control at 250 g/ha: 250 g ai/ha, read-out: Morningglory, Ivy-leaved damage rating (100=total damage to plant; 0=no damage to plant)
Procedure, shortened: as §1

[5] = system: redroot pigweed (Amaranthus retroflexus); assay: Test G Pre-Emergence Protocol; conditions: Amaranthus retroflexus, pre-emergence, 312 h, evaluated after 13 days; for pest or weed control at 15.625 g/ha: 15.625 g ai/ha; for pest or weed control at 15.625 g/ha / pest or weed control at 250 g/ha: read-out: Pigweed, Redroot damage rating (100=total damage to plant; 0=no damage to plant); for pest or weed control at 62.5 g/ha: 62.5 g ai/ha, 100=total damage to plant, 0=no damage to plant, read-out: plant damage rating, Pigweed, Redroot; for pest or weed control at 250 g/ha: 250 g ai/ha
Procedure, shortened: as §1

[6] = system: velvetleaf (Abutilon theophrasti); assay: Test G Pre-Emergence Protocol; conditions: Abutilon theophrasti, pre-emergence, 312 h, evaluated after 13 days; for pest or weed control at 15.625 g/ha: 15.625 g ai/ha; for pest or weed control at 15.625 g/ha / pest or weed control at 250 g/ha: read-out: Velvetleaf damage rating (100=total damage to plant; 0=no damage to plant); for pest or weed control at 62.5 g/ha: 62.5 g ai/ha, 100=total damage to plant, 0=no damage to plant, read-out: plant damage rating, Velvetleaf; for pest or weed control at 250 g/ha: 250 g ai/ha
Procedure, shortened: as §1

[7] = system: barnyardgrass (Echinochloa crus-galli); assay: Test G Post-Emergence Protocol; conditions: Echinochloa crus-galli, post-emergence, 312 h; for pest or weed control at 15.625 g/ha: 15.625 g ai/ha, evaluated after 13 days (100=total damage to plant; 0=no damage to plant), read-out: Barnyardgrass damage rating; for pest or weed control at 62.5 g/ha: 62.5 g ai/ha, read-out: Barnyardgrass damage rating (100=total damage to plant; 0=no damage to plant); for pest or weed control at 62.5 g/ha / pest or weed control at 250 g/ha: evaluated after 13 days; for pest or weed control at 250 g/ha: 250 g ai/ha, read-out: damage to plant, Barnyardgrass (100=total damage to plant; 0=no damage to plant)
Procedure, shortened: (§2)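 Scores run 0 (no damage) to 100 (total damage) and were taken 13 days after spraying. Plants had been raised in pots for 8 days under glasshouse control (24/16 °C, 14 h photoperiod, 65% humidity) and then treated at 15.625, 62.5 or 250 g/ha.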

[8] = system: corn (Zea mays); assay: Test G Post-Emergence Protocol; conditions: Zea mays, post-emergence, 312 h; for plant injury at 15.625 g/ha: 15.625 g ai/ha, evaluated after 13 days (100=total damage to plant; 0=no damage to plant), read-out: Corn damage rating; for plant injury at 62.5 g/ha: 62.5 g ai/ha, read-out: Corn damage rating (100=total damage to plant; 0=no damage to plant); for plant injury at 62.5 g/ha / plant injury at 250 g/ha: evaluated after 13 days; for plant injury at 250 g/ha: 250 g ai/ha, read-out: damage to plant, Corn (100=total damage to plant; 0=no damage to plant)
Procedure, shortened: as §2

[9] = system: giant foxtail (Setaria faberi); assay: Test G Post-Emergence Protocol; conditions: Setaria faberi, post-emergence, 312 h; for pest or weed control at 15.625 g/ha: 15.625 g ai/ha, evaluated after 13 days (100=total damage to plant; 0=no damage to plant), read-out: Foxtail, Giant damage rating; for pest or weed control at 62.5 g/ha: 62.5 g ai/ha, read-out: Foxtail, Giant damage rating (100=total damage to plant; 0=no damage to plant); for pest or weed control at 62.5 g/ha / pest or weed control at 250 g/ha: evaluated after 13 days; for pest or weed control at 250 g/ha: 250 g ai/ha, read-out: damage to plant, Foxtail, Giant (100=total damage to plant; 0=no damage to plant)
Procedure, shortened: as §2

[10] = system: ivy-leaved morning glory (Ipomoea hederacea); assay: Test G Post-Emergence Protocol; conditions: Ipomoea, post-emergence, 312 h; for pest or weed control at 15.625 g/ha: 15.625 g ai/ha, evaluated after 13 days (100=total damage to plant; 0=no damage to plant), read-out: Morningglory, Ivy-leaved damage rating; for pest or weed control at 62.5 g/ha: 62.5 g ai/ha, read-out: Morningglory, Ivy-leaved damage rating (100=total damage to plant; 0=no damage to plant); for pest or weed control at 62.5 g/ha / pest or weed control at 250 g/ha: evaluated after 13 days; for pest or weed control at 250 g/ha: 250 g ai/ha, read-out: damage to plant, Morningglory, Ivy-leaved (100=total damage to plant; 0=no damage to plant)
Procedure, shortened: as §2

[11] = system: redroot pigweed (Amaranthus retroflexus); assay: Test G Post-Emergence Protocol; conditions: Amaranthus retroflexus, post-emergence, 312 h; for pest or weed control at 15.625 g/ha: 15.625 g ai/ha, evaluated after 13 days (100=total damage to plant; 0=no damage to plant), read-out: Pigweed, Redroot damage rating; for pest or weed control at 62.5 g/ha: 62.5 g ai/ha, read-out: Pigweed, Redroot damage rating (100=total damage to plant; 0=no damage to plant); for pest or weed control at 62.5 g/ha / pest or weed control at 250 g/ha: evaluated after 13 days; for pest or weed control at 250 g/ha: 250 g ai/ha, read-out: damage to plant, Pigweed, Redroot (100=total damage to plant; 0=no damage to plant)
Procedure, shortened: as §2

[12] = system: velvetleaf (Abutilon theophrasti); assay: Test G Post-Emergence Protocol; conditions: Abutilon theophrasti, post-emergence, 312 h; for pest or weed control at 15.625 g/ha: 15.625 g ai/ha, evaluated after 13 days (100=total damage to plant; 0=no damage to plant), read-out: Velvetleaf damage rating; for pest or weed control at 62.5 g/ha: 62.5 g ai/ha, read-out: Velvetleaf damage rating (100=total damage to plant; 0=no damage to plant); for pest or weed control at 62.5 g/ha / pest or weed control at 250 g/ha: evaluated after 13 days; for pest or weed control at 250 g/ha: 250 g ai/ha, read-out: damage to plant, Velvetleaf (100=total damage to plant; 0=no damage to plant)
Procedure, shortened: as §2

Structure (SMILES)	pest or weed control at 15.625 g/ha [1] [%]	pest or weed control at 62.5 g/ha [1] [%]	pest or weed control at 250 g/ha [1] [%]	plant injury at 15.625 g/ha [2] [%]	plant injury at 62.5 g/ha [2] [%]	plant injury at 250 g/ha [2] [%]	pest or weed control at 15.625 g/ha [3] [%]	pest or weed control at 62.5 g/ha [3] [%]	pest or weed control at 250 g/ha [3] [%]	pest or weed control at 15.625 g/ha [4] [%]	pest or weed control at 62.5 g/ha [4] [%]	pest or weed control at 250 g/ha [4] [%]	pest or weed control at 15.625 g/ha [5] [%]	pest or weed control at 62.5 g/ha [5] [%]	pest or weed control at 250 g/ha [5] [%]	pest or weed control at 15.625 g/ha [6] [%]	pest or weed control at 62.5 g/ha [6] [%]	pest or weed control at 250 g/ha [6] [%]	pest or weed control at 15.625 g/ha [7] [%]	pest or weed control at 62.5 g/ha [7] [%]	further results
CN1C[C@@H](c2ccc(C(F)(F)F)cc2)[C@H](C(=O)Nc2cccc3cn[nH]c23)C1=O (racemic) [Compound 1605]	0	0	0	0	0	0	0	0	0	0	0	0	0	0	0	0	0	0	0	0	pest or weed control at 250 g/ha [7]: 30%; plant injury at 15.625 g/ha [8]: 0%; plant injury at 62.5 g/ha [8]: 0%; plant injury at 250 g/ha [8]: 10%; pest or weed control at 15.625 g/ha [9]: 0%; pest or weed control at 62.5 g/ha [9]: 0%; pest or weed control at 250 g/ha [9]: 10%; pest or weed control at 15.625 g/ha [10]: 0%; pest or weed control at 62.5 g/ha [10]: 0%; pest or weed control at 250 g/ha [10]: 0%; pest or weed control at 15.625 g/ha [11]: 0%; pest or weed control at 62.5 g/ha [11]: 20%; pest or weed control at 250 g/ha [11]: 30%; pest or weed control at 15.625 g/ha [12]: 0%; pest or weed control at 62.5 g/ha [12]: 0%; pest or weed control at 250 g/ha [12]: 10%
CN1C[C@@H](c2ccc(C(F)(F)F)cc2)[C@H](C(=O)Nc2ccncc2Cl)C1=O (racemic) [Compound 1608]	0	0	0	0	0	0	0	0	0	0	0	0	0	10	20	0	0	0	0	10	pest or weed control at 250 g/ha [7]: 10%; plant injury at 15.625 g/ha [8]: 0%; plant injury at 62.5 g/ha [8]: 10%; plant injury at 250 g/ha [8]: 20%; pest or weed control at 15.625 g/ha [9]: 0%; pest or weed control at 62.5 g/ha [9]: 10%; pest or weed control at 250 g/ha [9]: 60%; pest or weed control at 15.625 g/ha [10]: 40%; pest or weed control at 62.5 g/ha [10]: 30%; pest or weed control at 250 g/ha [10]: 40%; pest or weed control at 15.625 g/ha [11]: 0%; pest or weed control at 62.5 g/ha [11]: 10%; pest or weed control at 250 g/ha [11]: 20%; pest or weed control at 15.625 g/ha [12]: 0%; pest or weed control at 62.5 g/ha [12]: 0%; pest or weed control at 250 g/ha [12]: 0%

Reference: patent US12077503B2, “Substituted cyclic amides and their use as herbicides” (FMC CORPORATION, priority 2015, dated 2024)
